Assay results published in US10562891B2, “Quinazolinones as PARP14 inhibitors” (Ribon Therapeutics Inc., priority 2017, dated 2020).
Counter-ions that a name gives are not always drawn.

Target: catalytic domain of human PARP14 (Homo sapiens (Human), UniProt Q460N5)
Assay: Enzymatic assay for inhibition of PARP14 (DELFIA, auto-modification with biotin-NAD)
Assay type: biochemical
Conditions: auto-modification of PARP14 by biotin-NAD, 50 nM PARP14, 3 μM biotin-NAD
How it was run: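 DELFIA auto-modification read-out: europium-streptavidin bound to biotin-NAD incorporated onto nickel-captured His-TEV PARP14 catalytic domain. Compound preincubated 30 min, then 50 nM enzyme with 3 μM biotin-NAD reacted 3 h, all at 25 °C, pH 8, then NAD quench. Percent inhibition normalized to rucaparib/DMSO wells, fitted (4- or 3-parameter) for IC50.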

Chain of catalytic domain of human PARP14 (Q460N5 1611-1801): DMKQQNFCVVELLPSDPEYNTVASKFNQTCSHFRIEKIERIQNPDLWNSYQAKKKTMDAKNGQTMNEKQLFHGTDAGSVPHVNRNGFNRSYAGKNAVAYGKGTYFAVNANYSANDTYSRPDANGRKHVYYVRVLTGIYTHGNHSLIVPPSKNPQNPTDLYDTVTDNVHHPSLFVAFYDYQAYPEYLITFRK

Structure (SMILES) | IC50 [nM]
Cc1cccc2c(=O)[nH]c(CSC3CCC(CN)CC3)nc12 (stereo not shown) [Example 64, 2-(((4-(Aminomethyl)cyclohexyl)thio)methyl)-8-methylquinazolin-4(3H)-one Trifluoroacetate] | < 1000
Cc1cccc2c(=O)[nH]c(CS[C@H]3CC[C@@H](CN)CC3)nc12 [Example 65, 2-(((cis-4-(Aminomethyl)cyclohexyl)thio)methyl)-8-methylquinazolin-4(3H)-one Trifluoroacetate] | 1000 to 10000
Cc1cccc2c(=O)[nH]c(CS[C@H]3CC[C@H](CN)CC3)nc12 [Example 66, 2-(((trans-4-(Aminomethyl)cyclohexyl)thio)methyl)-8-methylquinazolin-4(3H)-one Trifluoroacetate] | < 1000
Cc1cccc2c(=O)[nH]c(CSC3CCC(CN(C)C)CC3)nc12 (stereo not shown) [Example 67, 2-(((4-((Dimethylamino)methyl)cyclohexyl)thio)methyl)-8-methylquinazolin-4(3H)-one trifluoroacetate] | < 1000
Cc1cccc2c(=O)[nH]c(CS[C@H]3CC[C@@H](CN(C)C)CC3)nc12 [Example 68, 2-(((cis-4-((Dimethylamino)methyl)cyclohexyl)thio)methyl)-8-methyl quinazolin-4(3H)-one Trifluoroacetate] | 1000 to 10000
Cc1cccc2c(=O)[nH]c(CS[C@H]3CC[C@H](CN(C)C)CC3)nc12 [Example 69, 2-(((trans-4-((Dimethylamino)methyl)cyclohexyl)thio)methyl)-8-methyl quinazolin-4(3H)-one Trifluoroacetate] | < 1000
CNC[C@H]1CC[C@H](SCc2nc3c(C)cccc3c(=O)[nH]2)CC1 [Example 73, 8-Methyl-2-(((trans-4-((methylamino)methyl)cyclohexyl)thio)methyl) quinazolin-4(3H)-one] | < 1000
Nc1ccc2c(=O)[nH]c(CSC3CCOCC3)nc2c1 [Example 74, 7-Amino-2-(((tetrahydro-2H-pyran-4-yl)thio)methyl)quinazolin-4(3H)-one] | > 10000
O=C(Nc1ccc2c(=O)[nH]c(CSC3CCOCC3)nc2c1)c1ccccc1 [Example 76, N-(4-Oxo-2-(((tetrahydro-2H-pyran-4-yl)thio)methyl)-3,4-dihydroquinazolin-7-yl)benzamide] | 1000 to 10000
CNC(=O)c1ccc2c(=O)[nH]c(CSC3CCOCC3)nc2c1 [Example 77, N-Methyl-4-oxo-2-(((tetrahydro-2H-pyran-4-yl)thio)methyl)-3,4-dihydro Quinazoline-7-carboxamide] | > 10000
O=C(Nc1ccccc1)c1ccc2c(=O)[nH]c(CSC3CCOCC3)nc2c1 [Example 78, 4-Oxo-N-phenyl-2-(((tetrahydro-2H-pyran-4-yl)thio)methyl)-3,4-dihydro Quinazoline-7-carboxamide] | > 10000

Continued, values first:

IC50 [nM] | Structure (SMILES)
> 10000 | CC(=O)Nc1ccc2c(=O)[nH]c(CSC3CCOCC3)nc2c1 [Example 75, N-(4-Oxo-2-(((tetrahydro-2H-pyran-4-yl)thio)methyl)-3,4-dihydroquinazolin-7-yl)acetamide]
< 1000 | O=c1[nH]c(CSC2CCOCC2)nc2cc(Nc3ccccc3)ccc12 [Example 79, 7-(Phenylamino)-2-(((tetrahydro-2H-pyran-4-yl)thio)methyl)quinazolin-4(3H)-one]
< 1000 | O=c1[nH]c(CSC2CCOCC2)nc2cc(Nc3cccnc3)ccc12 [Example 80, 7-(Pyridin-3-ylamino)-2-(((tetrahydro-2H-pyran-4-yl)thio)methyl)quinazolin-4(3H)-one]
1000 to 10000 | O=c1[nH]c(CSC2CCOCC2)nc2cc(Nc3ccccn3)ccc12 [Example 81, 7-(Pyridin-2-ylamino)-2-(((tetrahydro-2H-pyran-4-yl)thio)methyl)quinazolin-4(3H)-one]
1000 to 10000 | COc1ccc(Nc2ccc3c(=O)[nH]c(CSC4CCOCC4)nc3c2)cc1 [Example 82, 7-((4-Methoxyphenyl)amino)-2-(((tetrahydro-2H-pyran-4-yl)thio)methyl)quinazolin-4(3H)-one]
